Experiments:
[1] = test system: enzyme associated with Bacillus stearothermophilus spores; experiment: Rapid enzyme fluorescence readout of dual rapid readout indicators after prevacuum steam sterilization; assay type: biochemical; settings: 4-pulse prevacuum steam 121° C.
Experimental: (§1) The indicators prepared for the Examples were dual rapid readout indicators that provided both a rapid, enzyme-based efficacy test and a confirmatory spore outgrowth test. Spores coated on the carrier strip 16 served as the source of active enzyme whose activity was measured by the rapid enzyme test. These same spores were then incubated in the spore outgrowth portion of the test.
(§2) Bacillus stearothermophilus, commercially available as ATCC 7953 from American Type Culture Collection, Rockville, Md., was grown overnight (16 hours) at 58° C. in tryptic soy broth. This culture was used to inoculate the surface of agar plates consisting of 8 g/l nutrient broth, 4 g/l yeast extract, 0.1 g/l manganese chloride and 20 g/l agar at pH 7.2. Plates were incubated at 58° C. for 72 hours. Spores were scraped from the plates and suspended in sterile distilled water. The spores were separated from the vegetative debris by centrifuging the suspension at 7000 rpm and 4° C. for 20 minutes. The supernatant was poured off and the spores were resuspended in sterile distilled water. The cleaning procedure was repeated several times. After the final wash, the spores were suspended in sterile distilled water, at a concentration of approximately 1×10^8 spores per milliliter.
(§3) The spores were then treated with the chemicals identified in Tables 1–5. All chemicals tested were obtained from commercial sources. The spores were centrifuged at 6000 rpm for 10 minutes. The supernatant and coating chemical mixtures were heated at 60–80° C. for several minutes and vortexed to get the material into solution. The spores were then mixed into the sterilant-resistant chemical solution. The sterilant-resistant chemical solution was applied to 5×25 mm, 591 A paper strips (Schleicher & Schuell, Inc., Keene, N.H.) by pipetting 10–15 microliters to each strip for a final population of about 1×10^6 spores per strip. The strips were dried 16 hours at 37° C.
(§4) The treated spore strips were placed on the bottom of the outer container 12 of the indicator 10 and a barrier was inserted between the spore strip 16 and the inner container 18, which contained enzyme substrate. A […] ( 11/16 inch) disc of polypropylene blown microfiber material, with a weight of 200 g/m^2, commercially available as “THINSULATE™ 200-B brand Thermal Insulation” from 3M Company, St. Paul, Minn., was used as the barrier. The inner container 18 contained 0.67 ml nutrient medium, consisting of 17 g of a bacteriological peptone and a 0.17 g/l of L-alanine, as well as 0.1 g 4-methylumbelliferyl-alpha-D-glucoside, commercially available from Sigma Chemical Company, St. Louis, Mo., dissolved in 200 microliters of N,N-dimethylformamide, and 0.03 g bromocresol purple pH indicator dye, per liter of water. The pH of the enzyme substrate and nutrient medium solution was adjusted to 7.6 with 0.1N sodium hydroxide.
(§5) Sterilization indicators were made as described above with each of the chemicals and concentrations described in Table 1. Control indicators were made using untreated spores. The indicators were placed in metal instrument trays and exposed at 121° C. in a Getinge Steam Sterilizer (Getinge International, Inc., 1100 Towbin Ave., Lakewood, N.J.) using a 4-pulse prevacuum cycle at 121° C. with a vacuum level of 0.075–0.085 bar and a steam pulse to 1.00 bar for each pulse. Indicators were exposed in the sterilizer for between 7 and 13 minutes. This cycle is depicted in the time-pressure diagram in FIG. 5. After exposure the inner containers containing the enzyme substrate and nutrient medium were crushed and the indicators were incubated at 60° C. The indicators were examined for fluorescence using a 3M™ ATTEST™ Model 190 Rapid Autoreader, commercially available from 3M Company, St. Paul, Minn. Additionally, spore growth, as indicated by a color change from purple to yellow, was determined visually after 168 hours of incubation at 60° C. […]

[2] = test system: Bacillus stearothermophilus spores; experiment: Spore outgrowth (color change) of indicators after prevacuum steam sterilization; assay type: cell-based; settings: 4-pulse prevacuum steam 121° C.
Experimental: as §1, §2, §3, §4, §5

[3] = Example 3, 100 mg/ml coating, 7–15 min
[4] = Example 4, 100 mg/ml coating, 7–18 min
[5] = Example 5, 50 mg/ml coating, 7–13 min

| Compound | FLUORESCENCE - PERCENT POSITIVE 1 HR [1, 3] [%] | FLUORESCENCE - PERCENT POSITIVE 2 HR [1, 3] [%] | FLUORESCENCE - PERCENT POSITIVE 3 HR [1, 3] [%] | FLUORESCENCE - PERCENT POSITIVE 4 HR [1, 3] [%] | FLUORESCENCE - PERCENT POSITIVE 1 HR [1, 4] [%] | FLUORESCENCE - PERCENT POSITIVE 2 HR [1, 4] [%] | FLUORESCENCE - PERCENT POSITIVE 3 HR [1, 4] [%] | FLUORESCENCE - PERCENT POSITIVE 4 HR [1, 4] [%] | GROWTH POSITIVE 168 HR [2, 3] | NO. GROWTH POSITIVE 168 HR [2, 4] | FLUORESCENCE - PERCENT POSITIVE 1 HR [1, 5] [%] | FLUORESCENCE - PERCENT POSITIVE 2 HR [1, 5] [%] | FLUORESCENCE - PERCENT POSITIVE 3 HR [1, 5] [%] | FLUORESCENCE - PERCENT POSITIVE 4 HR [1, 5] [%] | NO. GROWTH POSITIVE 168 HR [2, 5] |
| --- | --- | --- | --- | --- | --- | --- | --- | --- | --- | --- | --- | --- | --- | --- | --- |
| OC[C@@H](O)[C@@H](O)[C@H](O)[C@@H](O)CO [Sorbitol] | 0 | 52.8 | 83.3 | 91.7 | 5.4 | 40.5 | 81.1 | 89.2 | 36 | 37 | – | – | – | – | – |
| POE(60) Sorbitol Tetrastearate | – | – | – | – | – | – | – | – | – | – | 0 | 0 | 0 | 0 | 5 |
| POE(10) Phytosterol | – | – | – | – | – | – | – | – | – | – | 0 | 0 | 0 | 0 | 2 |
